Test [1] addresses T1, baculovirus-expressed ALK (Homo sapiens, UniProt Q9UM73).
T1 construct: host or cells: baculovirus expression system
Put plainly: ALK Kinase Assay (ELISA-type, time-resolved fluorescence). It counts as biochemical. The note with it: ALK kinase inhibition, 1 μM ATP; read-out: ALK Activity. The method in brief:
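Substrate coating: phospholipase C-γ, 10 μg/mL in TBS. Kinase step: 30 ng/ml ALK, 15 min, 37° C. Detection and analysis: Eu-N1 PT66 antibody, with IC50 fitted as a sigmoidal variable-slope dose-response curve.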

In test [2] the target is T2, c-Met (cytoplasmic domain) (Homo sapiens, UniProt P08581).
T2 construct: 10 ng/mL c-Met (cytoplasmic domain, Invitrogen Corporation #PV3143); purchased Invitrogen Corporation PV3143
T2 sequence (P08581 956-1390 limits assumed): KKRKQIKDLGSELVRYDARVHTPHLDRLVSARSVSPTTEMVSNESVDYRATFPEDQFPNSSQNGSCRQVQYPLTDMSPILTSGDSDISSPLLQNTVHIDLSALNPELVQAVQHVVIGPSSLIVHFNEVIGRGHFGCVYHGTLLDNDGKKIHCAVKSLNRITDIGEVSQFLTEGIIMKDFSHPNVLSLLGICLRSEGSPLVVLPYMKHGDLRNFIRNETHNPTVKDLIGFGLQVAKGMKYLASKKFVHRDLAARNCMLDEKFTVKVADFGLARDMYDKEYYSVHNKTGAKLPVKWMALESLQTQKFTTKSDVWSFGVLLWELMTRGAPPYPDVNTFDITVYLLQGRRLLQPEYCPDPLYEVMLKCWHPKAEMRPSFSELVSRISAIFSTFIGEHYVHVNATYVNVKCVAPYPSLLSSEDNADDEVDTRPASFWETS
Briefly: c-Met Kinase Assay (same methods as for ALK, with modifications). It counts as biochemical. The note with it: c-Met kinase inhibition, 1 μM ATP; read-out: cMet Activity. The essentials:
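Wells were coated with 10 μg/mL phospholipase C-γ substrate in TBS, and reactions were started with 10 ng/mL c-Met cytoplasmic domain and run at 37° C for 15 minutes. Phosphorylated product was detected with Eu-N1-labeled PT66 antibody. IC50 values came from sigmoidal variable-slope fits of percent inhibition versus log compound concentration.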

Where only a bound is given, the exact number is not on record here.

T1 sequence (Q9UM73 19-1620): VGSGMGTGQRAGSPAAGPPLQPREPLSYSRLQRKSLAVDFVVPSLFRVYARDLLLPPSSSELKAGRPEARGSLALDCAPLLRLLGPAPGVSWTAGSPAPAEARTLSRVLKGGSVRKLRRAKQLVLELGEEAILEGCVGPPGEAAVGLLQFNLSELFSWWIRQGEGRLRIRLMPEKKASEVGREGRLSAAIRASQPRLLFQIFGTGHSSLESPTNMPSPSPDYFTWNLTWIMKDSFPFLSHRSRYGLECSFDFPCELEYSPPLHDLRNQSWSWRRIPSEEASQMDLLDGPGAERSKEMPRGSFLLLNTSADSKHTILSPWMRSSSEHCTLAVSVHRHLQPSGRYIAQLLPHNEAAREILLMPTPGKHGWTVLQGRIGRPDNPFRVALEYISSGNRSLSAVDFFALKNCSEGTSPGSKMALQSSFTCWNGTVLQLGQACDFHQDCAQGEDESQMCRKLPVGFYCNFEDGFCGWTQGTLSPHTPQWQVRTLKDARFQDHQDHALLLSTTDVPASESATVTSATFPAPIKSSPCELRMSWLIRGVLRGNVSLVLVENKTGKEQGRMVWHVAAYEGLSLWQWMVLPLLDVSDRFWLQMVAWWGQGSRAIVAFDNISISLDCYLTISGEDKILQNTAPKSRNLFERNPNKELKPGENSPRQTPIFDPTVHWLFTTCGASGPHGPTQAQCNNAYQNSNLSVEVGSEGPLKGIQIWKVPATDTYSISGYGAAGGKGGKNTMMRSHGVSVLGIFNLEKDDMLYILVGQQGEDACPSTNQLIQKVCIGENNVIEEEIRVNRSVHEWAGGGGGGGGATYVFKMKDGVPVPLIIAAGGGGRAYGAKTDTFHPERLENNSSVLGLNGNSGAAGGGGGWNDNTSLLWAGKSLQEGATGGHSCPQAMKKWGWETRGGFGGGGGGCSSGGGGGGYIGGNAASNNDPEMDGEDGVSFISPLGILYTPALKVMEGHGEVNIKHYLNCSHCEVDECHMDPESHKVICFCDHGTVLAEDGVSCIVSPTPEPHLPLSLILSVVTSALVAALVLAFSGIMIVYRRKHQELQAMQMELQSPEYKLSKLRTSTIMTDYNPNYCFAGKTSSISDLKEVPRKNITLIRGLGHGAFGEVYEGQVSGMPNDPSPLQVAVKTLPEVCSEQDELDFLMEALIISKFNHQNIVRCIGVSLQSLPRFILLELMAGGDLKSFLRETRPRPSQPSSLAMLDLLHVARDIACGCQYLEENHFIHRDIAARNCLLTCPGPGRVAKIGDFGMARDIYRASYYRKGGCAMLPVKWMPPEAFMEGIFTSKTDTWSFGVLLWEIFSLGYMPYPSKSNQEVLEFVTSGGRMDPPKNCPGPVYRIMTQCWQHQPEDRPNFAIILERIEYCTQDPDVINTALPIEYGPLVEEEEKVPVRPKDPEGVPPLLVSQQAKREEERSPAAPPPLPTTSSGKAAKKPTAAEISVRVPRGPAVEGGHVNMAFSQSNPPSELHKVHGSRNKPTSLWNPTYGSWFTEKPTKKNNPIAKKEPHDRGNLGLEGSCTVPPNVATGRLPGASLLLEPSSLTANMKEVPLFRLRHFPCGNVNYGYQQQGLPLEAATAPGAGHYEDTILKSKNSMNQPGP

For `CNC(=O)c1sccc1Nc1nc(Nc2ccc3c(c2)N(C(=O)CN2CCCC2)CCCO3)ncc1Cl` [Example 1705, 3-{5-Chloro-2-[9-(2-pyrrolidin-1-yl-acetyl)-6,7,8,9-tetrahydro-5-oxa-9-aza-benzocyclohepten-2-ylamino]-pyrimidin-4-ylamino}-thiophene-2-carboxylic acid methylamide], the IC50 in test [1] and in test [2] was 100 to 1000 nM throughout.
As for `CNC(=O)c1ccccc1Nc1nc(Nc2ccc3c(c2)N(C(=O)CN2CCCC2)CCCO3)ncc1Cl` [Example 1706, 2-{5-Chloro-2-[9-(2-pyrrolidin-1-yl-acetyl)-6,7,8,9-tetrahydro-5-oxa-9-aza-benzocyclohepten-2-ylamino]-pyrimidin-4-ylamino}-N-methyl-benzamide], the IC50 in test [1] and in test [2] was 100 to 1000 nM in each case.
For the compound `CNC(=O)c1cccc(F)c1Nc1nc(Nc2ccc3c(c2)N(C)CCCO3)ncc1Cl` [Example 1707, 2-[5-Chloro-2-(9-methyl-6,7,8,9-tetrahydro-5-oxa-9-aza-benzocyclohepten-2-ylamino)-pyrimidin-4-ylamino]-3-fluoro-N-methyl-benzamide], the IC50 in test [1] and in test [2] was below 100 nM in each case.
As to `CNC(=O)c1ccccc1Nc1nc(Nc2ccc3c(c2)N(C)CCCO3)ncc1Cl` [Example 1708, 2-[5-Chloro-2-(9-methyl-6,7,8,9-tetrahydro-5-oxa-9-aza-benzocyclohepten-2-ylamino)-pyrimidin-4-ylamino]-N-methyl-benzamide], the IC50 in test [1] and in test [2] was below 100 nM in each case.
For `C=CCOc1cc(N(C)C)cc(F)c1Nc1nc(Nc2ccc3c(c2)CCOC(=O)N3C)ncc1Cl` [Example 1709, 2-[4-(2-Allyloxy-4-dimethylamino-6-fluoro-phenylamino)-5-chloro-pyrimidin-2-ylamino]-5-methyl-8,9-dihydro-5H-7-oxa-5-aza-benzocyclohepten-6-one], the IC50 in test [1] was below 100 nM; in test [2], 100 to 1000 nM.
Taken in the same sequence, the figures for `C=CCOc1cc(N(C)C)cc(F)c1Nc1nc(Nc2ccc3c(c2)CCN(CCOC)CC3)ncc1Cl` [Example 1710, N*4*-(2-Allyloxy-4-dimethylamino-6-fluoro-phenyl)-5-chloro-N*2*-[3-(2-methoxy-ethyl)-2,3,4,5-tetrahydro-1H-benzo[d]azepin-7-yl]-pyrimidine-2,4-diamine] were below 100 nM and 100 to 1000 nM.
For the compound `COCCN1CCc2ccc(Nc3ncc(Cl)c(Nc4c(F)cccc4C(=O)NCC4CC4)n3)cc2CC1` [Example 1711, 2-{5-Chloro-2-[3-(2-methoxy-ethyl)-2,3,4,5-tetrahydro-1H-benzo[d]azepin-7-ylamino]-pyrimidin-4-ylamino}-N-cyclopropylmethyl-3-fluoro-benzamide], the IC50 in test [1] was 100 to 1000 nM; in test [2] it was 1000 to 10000 nM.
Taken in the same sequence, the figures for `O=C1CCCc2ccc(Nc3ncc(Cl)c(Nc4c(F)cccc4C(=O)NCC4CC4)n3)cc2N1` [Example 1712, 2-[5-Chloro-2-(2-oxo-2,3,4,5-tetrahydro-1H-benzo[b]azepin-8-ylamino)-pyrimidin-4-ylamino]-N-cyclopropylmethyl-3-fluoro-benzamide] were 1000 to 10000 nM and 1000 to 10000 nM.
Turning to `C#CCNC(=O)c1cccc(F)c1Nc1nc(Nc2ccc3c(c2)N(C(C)=O)CCCO3)ncc1Cl` [Example 1713, 2-[2-(9-Acetyl-6,7,8,9-tetrahydro-5-oxa-9-aza-benzocyclohepten-2-ylamino)-5-chloro-pyrimidin-4-ylamino]-3-fluoro-N-prop-2-ynyl-benzamide], the IC50 in test [1] was 100 to 1000 nM; in test [2], below 100 nM.
In the case of `CNC(=O)c1sccc1Nc1nc(Nc2ccc3c(c2)OCCCN3C(=O)CN2CCCC2)ncc1Cl` [Example 1715, 3-{5-Chloro-2-[9-(2-pyrrolidin-1-yl-acetyl)-6,7,8,9-tetrahydro-5-oxa-9-aza-benzocyclohepten-3-ylamino]-pyrimidin-4-ylamino}-thiophene-2-carboxylic acid methylamide], the IC50 in test [1] and in test [2] was 100 to 1000 nM each time.
Take `C#CCNC(=O)c1cccc(F)c1Nc1nc(Nc2ccc3c(c2)OCCCN3C(=O)CN2CCCC2)ncc1Cl` [Example 1716, 2-{5-Chloro-2-[9-(2-pyrrolidin-1-yl-acetyl)-6,7,8,9-tetrahydro-5-oxa-9-aza-benzocyclohepten-3-ylamino]-pyrimidin-4-ylamino}-3-fluoro-N-prop-2-ynyl-benzamide]: the IC50 in test [1] was 100 to 1000 nM; in test [2] it was below 100 nM.
Regarding `CN1C(=O)OCCc2cc(Nc3ncc(Cl)c(Nc4c(F)cccc4OCC(O)CO)n3)ccc21` (stereo not shown) [Example 1717, 2-{5-Chloro-4-[2-(2,3-dihydroxy-propoxy)-6-fluoro-phenylamino]-pyrimidin-2-ylamino}-5-methyl-8,9-dihydro-5H-7-oxa-5-aza-benzocyclohepten-6-one], the figures for the IC50 in test [1] and in test [2] were 1000 to 10000 nM and below 100 nM, respectively.
On to `C#CCNC(=O)c1cccc(F)c1Nc1nc(Nc2ccc3c(c2)OCCCN3CCN2CCCC2)ncc1Cl` [Example 1719, 2-{5-Chloro-2-[9-(2-pyrrolidin-1-yl-ethyl)-6,7,8,9-tetrahydro-5-oxa-9-aza-benzocyclohepten-3-ylamino]-pyrimidin-4-ylamino}-3-fluoro-N-prop-2-ynyl-benzamide], for which the IC50 in test [1] and in test [2] was below 100 nM in each case.
Regarding `CCN1CC(O)(CO)COc2ccc(Nc3ncc(Cl)c(Nc4c(F)cccc4C(=O)NC)n3)cc21` (stereo not shown) [Example 1720, 2-[5-Chloro-2-(9-ethyl-7-hydroxy-7-hydroxymethyl-6,7,8,9-tetrahydro-5-oxa-9-aza-benzocyclohepten-2-ylamino)-pyrimidin-4-ylamino]-3-fluoro-N-methyl-benzamide], the IC50 in test [1] was below 100 nM; in test [2], 100 to 1000 nM.
Take `C#CCNC(=O)c1cccc(F)c1Nc1nc(Nc2ccc3c(c2)N(CC)CC(O)(CO)CO3)ncc1Cl` (stereo not shown) [Example 1721, 2-[5-Chloro-2-(9-ethyl-7-hydroxy-7-hydroxymethyl-6,7,8,9-tetrahydro-5-oxa-9-aza-benzocyclohepten-2-ylamino)-pyrimidin-4-ylamino]-3-fluoro-N-prop-2-ynyl-benzamide]: the IC50 in test [1] and in test [2] was 100 to 1000 nM in each case.
Turning to `CCN1CC(N2CCOCC2)COc2ccc(Nc3ncc(Cl)c(Nc4c(F)cccc4C(=O)NC)n3)cc21` (stereo not shown) [Example 1722, 2-[5-Chloro-2-(9-ethyl-7-morpholin-4-yl-6,7,8,9-tetrahydro-5-oxa-9-aza-benzocyclohepten-2-ylamino)-pyrimidin-4-ylamino]-3-fluoro-N-methyl-benzamide], the IC50 in test [1] and in test [2] was below 100 nM throughout.
As to `C#CCNC(=O)c1cccc(F)c1Nc1nc(Nc2ccc3c(c2)OCCCN3C(C)=O)ncc1Cl` [Example 1725, 2-[2-(9-Acetyl-6,7,8,9-tetrahydro-5-oxa-9-aza-benzocyclohepten-3-ylamino)-5-chloro-pyrimidin-4-ylamino]-3-fluoro-N-prop-2-ynyl-benzamide], the IC50 in test [1] and in test [2] was below 100 nM throughout.
As for `COCCN1CCc2ccc(Nc3ncc(Cl)c(Nc4c(F)cccc4OCC(=O)OC)n3)cc2CC1` [Example 1727, (2-{5-Chloro-2-[3-(2-methoxy-ethyl)-2,3,4,5-tetrahydro-1H-benzo[d]azepin-7-ylamino]-pyrimidin-4-ylamino}-3-fluoro-phenoxy)-acetic acid methyl ester], the IC50 in test [1] and in test [2] was 1000 to 10000 nM in each case.
`C#CCNC(=O)c1cc(F)cc(F)c1Nc1nc(Nc2ccc3c(c2)CCN(CCOC)CC3)ncc1Cl` [Example 1728, 2-{5-Chloro-2-[3-(2-methoxy-ethyl)-2,3,4,5-tetrahydro-1H-benzo[d]azepin-7-ylamino]-pyrimidin-4-ylamino}-3,5-difluoro-N-prop-2-ynyl-benzamide]: the IC50 is 100 to 1000 nM in test [1] and below 100 nM in test [2].
On to `C#CCNC(=O)c1cc(F)cc(F)c1Nc1nc(Nc2ccc3c(c2)NC(=O)CCC3)ncc1Cl` [Example 1729, 2-[5-Chloro-2-(2-oxo-2,3,4,5-tetrahydro-1H-benzo[b]azepin-8-ylamino)-pyrimidin-4-ylamino]-3,5-difluoro-N-prop-2-ynyl-benzamide], for which the IC50 in test [1] lay in the range of 1000 to 10000 nM; in test [2] it was 100 to 1000 nM.
In the same order, the values of `COCCN1CCc2ccc(Nc3ncc(Cl)c(Nc4ccccc4S(=O)(=O)N4CCCC4)n3)cc2CC1` [Example 1730, 5-Chloro-N*2*-[3-(2-methoxy-ethyl)-2,3,4,5-tetrahydro-1H-benzo[d]azepin-7-yl]-N*4*-[2-(pyrrolidine-1-sulfonyl)-phenyl]-pyrimidine-2,4-diamine] are below 100 nM and below 100 nM.
As to `O=C1CCCc2ccc(Nc3ncc(Cl)c(Nc4ccccc4S(=O)(=O)N4CCCC4)n3)cc2N1` [Example 1731, 8-{5-Chloro-4-[2-(pyrrolidine-1-sulfonyl)-phenylamino]-pyrimidin-2-ylamino}-1,3,4,5-tetrahydro-benzo[b]azepin-2-one], the IC50 in test [1] and in test [2] was below 100 nM in each case.
Take `CN1C(=O)OCCc2cc(Nc3ncc(Cl)c(Nc4c(F)cccc4OCCO)n3)ccc21` [Example 1732, 2-{5-Chloro-4-[2-fluoro-6-(2-hydroxy-ethoxy)-phenylamino]-pyrimidin-2-ylamino}-5-methyl-8,9-dihydro-5H-7-oxa-5-aza-benzocyclohepten-6-one]: the IC50 in test [1] and in test [2] was below 100 nM throughout.

These data come from US8148391B2 (Cephalon, Inc., priority 2006, dated 2012).
